This note sets out measurements from patent US20090061005A1, “Paliperidone Polymorphs” (ACTAVIS GROUP PTC EHF, priority 2007, published 2009).

Data set [1] can be described thus: Water (moisture) content of Form A2 by TGA. The data set is classed as physicochemical. The procedure:
Thermogravimetric analysis (TGA) was performed with a NETZSCH STA 409C/CD instrument. The term “water content” refers to the content of water based upon the Loss on Drying method as described in Pharmacopeial Forum, Vol. 24, No. 1, page 5438 (January-February 1998). The calculation of water content is based upon the percent of weight that is lost by drying. For Form A2 the term “water content” refers to the content of water based upon a TGA measurement.

A short description of data set [2]: Extended drying of Form A2 under vacuum (retention of hydrate water). It counts as physicochemical. Particulars: drying for 12 hours at about 80° C. under vacuum.

Each structure is given as a SMILES string. Several values for one entry are separate records, joined by “and”; a condition that tells them apart may be missing. Identical values can stand only once.

Turning to `Cc1nc2n(c(=O)c1CCN1CCC(c3noc4cc(F)ccc34)CC1)CCCC2O` (racemic) [Form A2, (±)-3-[2-[4-(6-fluoro-1,2-benzisoxazol-3-yl)-1-piperidinyl]ethyl]-6,7,8,9-tetrahydro-9-hydroxy-2-methyl-4H-pyrido[1,2-a]pyrimidin-4-one], the water content in data set [1] (Form A2 obtained by the process, stable and consistently reproducible) was 2.5-4 % w/w. The Moisture content in data set [1] (isolated solid after drying under high vacuum at 60-70° C. for about 12 hours) is 4 % w/w and 2.7 % w/w. Also, the “removal of moisture on extended drying” value in data set [2] is listed as “moisture could not be removed”.
